Results reported in ChEMBL document CHEMBL1201862, “PubChem BioAssay data set” (2004).
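Each compound was tested at five concentrations against cells in 96-well plates for 48 hours. At the GI50, growth is halved.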 The source made the active and inactive calls. No stated cut-off is given here; in the data, active = GI50 up to about 1.1 µM and inactive = higher. Where a SMILES comes first, the peptide text is derived from it. The star is where a group is joined. Cbz = O=C(OCc1ccccc1)*

How the values were obtained:
Experiment in all cases: growth of human tumour cells (NCI), 48 h
A498 = system: A498
DU-145 = system: DU-145
HCT-116 = system: HCT-116
HCT-15 = system: HCT-15
Hs-578T = system: Hs-578T
KM12 = system: KM12
MCF7 = system: MCF7
MDA-MB-231 = system: MDA-MB-231
Malme-3M = system: Malme-3M
NCI-H460 = system: NCI-H460
OVCAR-3 = system: OVCAR-3
OVCAR-5 = system: OVCAR-5
SF-295 = system: SF-295
SK-MEL-2 = system: SK-MEL-2
SK-MEL-5 = system: SK-MEL-5
SNB-19 = system: SNB-19
TK-10 = system: TK-10
U-251 = system: U-251
UACC-257 = system: UACC-257
T47D = system: T47D

SMILES | GI50 (A498) | GI50 (DU-145) | GI50 (HCT-116) | GI50 (HCT-15) [µM] | GI50 (Hs-578T) | GI50 (KM12) | GI50 (MCF7) | GI50 (MDA-MB-231) | GI50 (Malme-3M) | GI50 (NCI-H460) | GI50 (OVCAR-3) | GI50 (OVCAR-5) | GI50 (SF-295) | GI50 (SK-MEL-2) | GI50 (SK-MEL-5) | GI50 (SNB-19) | GI50 (TK-10) | GI50 (U-251) | GI50 (UACC-257) | GI50 (T47D)
NC1=NC(=O)[C@H](CSCc2ccccc2)N1C(=O)OCc1ccccc1 | > 100 µM (inactive) | > 100 µM (inactive) | > 100 µM (inactive) | > 100 | > 100 µM (inactive) | > 100 µM (inactive) | > 100 µM (inactive) | > 100 µM (inactive) | > 100 µM (inactive) | > 100 µM (inactive) | > 100 µM (inactive) | > 100 µM (inactive) | > 100 µM (inactive) | > 100 µM (inactive) | > 100 µM (inactive) | > 100 µM (inactive) | > 100 µM (inactive) | > 100 µM (inactive) | > 100 µM (inactive) | –
N#Cc1nc(C(=O)c2ccccc2)oc1N | > 100 µM (inactive) | > 100 µM (inactive) | > 100 µM (inactive) | > 100 | 20.9 µM (inactive) | > 100 µM (inactive) | > 100 µM (inactive) | > 100 µM (inactive) | – | – | – | > 100 µM (inactive) | – | > 100 µM (inactive) | > 100 µM (inactive) | > 100 µM (inactive) | > 100 µM (inactive) | > 100 µM (inactive) | > 100 µM (inactive) | –
COc1ccc(C2C3=C(COC3=O)Oc3cc4c(cc32)OCO4)c(OC)c1 (configuration not stated) | 16.1 µM (inactive) | 26.3 µM (inactive) | 6.24 µM (inactive) | 5.73 | 13.6 µM (inactive) | 5.19 µM (inactive) | 6.89 µM (inactive) | 9.04 µM (inactive) | 14.9 µM (inactive) | 17.4 µM (inactive) | 5.52 µM (inactive) | 43.5 µM (inactive) | 5.77 µM (inactive) | – | 10.7 µM (inactive) | 37.8 µM (inactive) | 62.1 µM (inactive) | 19.3 µM (inactive) | 47.9 µM (inactive) | –
CCOC(=O)CCC(NC(=O)CNC(=O)CNC(=O)C(CCC(=O)OCC)NC(=O)C(CCC(=O)OCC)NC(=O)C(CCC(=O)OCC)NC(=O)OCc1ccccc1)C(=O)NC(CCC(=O)OCC)C(=O)NC(CCC(=O)OCC)C(=O)OCC (configuration not stated) (Cbz-E(OEt)E(OEt)E(OEt)GGE(OEt)E(OEt)E(OEt)-OEt; configuration not given here) | – | > 75 µM (inactive) | > 75 µM (inactive) | > 75 | > 75 µM (inactive) | > 75 µM (inactive) | > 75 µM (inactive) | > 75 µM (inactive) | > 75 µM (inactive) | > 75 µM (inactive) | – | > 75 µM (inactive) | > 75 µM (inactive) | > 75 µM (inactive) | > 75 µM (inactive) | > 75 µM (inactive) | > 75 µM (inactive) | > 75 µM (inactive) | > 75 µM (inactive) | –
CCCc1cc(=O)oc2c3c(c4c(c12)OC(C)(C)C=C4)O[C@@H](C)[C@H](C)C3=O | 14.7 µM (inactive) | 19.5 µM (inactive) | 10.4 µM (inactive) | 15 | 15.3 µM (inactive) | 13.6 µM (inactive) | 17.6 µM (inactive) | 11.8 µM (inactive) | 19.5 µM (inactive) | 15.8 µM (inactive) | 17.2 µM (inactive) | 17.9 µM (inactive) | 16.6 µM (inactive) | – | 15.8 µM (inactive) | 17.8 µM (inactive) | 20.7 µM (inactive) | 23.4 µM (inactive) | 19.7 µM (inactive) | –
Nc1nc(NNc2cccc(F)c2)cc(=O)[nH]1 | > 100 µM (inactive) | 81.3 µM (inactive) | 24 µM (inactive) | 42.5 | 36.8 µM (inactive) | 22.4 µM (inactive) | 29.5 µM (inactive) | 42.2 µM (inactive) | 74.8 µM (inactive) | 44 µM (inactive) | 24.9 µM (inactive) | > 100 µM (inactive) | 33.3 µM (inactive) | – | 42.7 µM (inactive) | 65.2 µM (inactive) | > 100 µM (inactive) | 20.7 µM (inactive) | > 100 µM (inactive) | –
O=c1c2cc(S(=O)(=O)Nc3ccc(Cl)cc3Cl)ccc2ncn1NS(=O)(=O)c1cccc2ccccc12 | – | 36.5 µM (inactive) | 30.5 µM (inactive) | 34.1 | 21.5 µM (inactive) | 22.4 µM (inactive) | 20.7 µM (inactive) | 20.4 µM (inactive) | > 100 µM (inactive) | 36.6 µM (inactive) | 33.9 µM (inactive) | 61.5 µM (inactive) | 37.4 µM (inactive) | 38.1 µM (inactive) | – | 21.6 µM (inactive) | 85.7 µM (inactive) | 58.2 µM (inactive) | 77.6 µM (inactive) | –
NC(=O)Nc1c(Cl)cc(S(N)(=O)=O)cc1Cl | – | > 100 µM (inactive) | > 100 µM (inactive) | > 100 | > 100 µM (inactive) | > 100 µM (inactive) | > 100 µM (inactive) | > 100 µM (inactive) | > 100 µM (inactive) | – | > 100 µM (inactive) | > 100 µM (inactive) | > 100 µM (inactive) | > 100 µM (inactive) | > 100 µM (inactive) | > 100 µM (inactive) | > 100 µM (inactive) | > 100 µM (inactive) | > 100 µM (inactive) | –
CN(C)/C=N\c1nncc2[nH]cnc12 | > 100 µM (inactive) | – | 87.3 µM (inactive) | > 100 | – | > 100 µM (inactive) | > 100 µM (inactive) | – | 68.7 µM (inactive) | – | > 100 µM (inactive) | > 100 µM (inactive) | > 100 µM (inactive) | > 100 µM (inactive) | > 100 µM (inactive) | – | 73.6 µM (inactive) | > 100 µM (inactive) | 92.7 µM (inactive) | > 100 µM (inactive)
COC(=O)c1[nH]c(=S)[nH]c(=O)c1-c1ccc(Cl)cc1 | > 50 µM (inactive) | – | > 50 µM (inactive) | > 50 | – | > 50 µM (inactive) | – | – | > 50 µM (inactive) | > 50 µM (inactive) | > 50 µM (inactive) | > 50 µM (inactive) | > 50 µM (inactive) | > 50 µM (inactive) | > 50 µM (inactive) | > 50 µM (inactive) | > 50 µM (inactive) | > 50 µM (inactive) | > 50 µM (inactive) | –
C[C@]12CCC(=O)C=C1CC[C@@H]1C2CC[C@]2(C)c3nn(-c4ccccc4)nc3CC12 (some centres not stated) | > 100 µM (inactive) | – | > 100 µM (inactive) | > 100 | – | > 100 µM (inactive) | – | – | > 100 µM (inactive) | > 100 µM (inactive) | > 100 µM (inactive) | > 100 µM (inactive) | > 100 µM (inactive) | > 100 µM (inactive) | > 100 µM (inactive) | > 100 µM (inactive) | > 100 µM (inactive) | > 100 µM (inactive) | > 100 µM (inactive) | –
CCOC(=O)[C@@H]1OC(c2ccccc2)O[C@H]1C(=O)OCC | > 100 µM (inactive) | > 100 µM (inactive) | > 100 µM (inactive) | > 100 | > 100 µM (inactive) | > 100 µM (inactive) | > 100 µM (inactive) | > 100 µM (inactive) | > 100 µM (inactive) | – | > 100 µM (inactive) | > 100 µM (inactive) | > 100 µM (inactive) | > 100 µM (inactive) | > 100 µM (inactive) | > 100 µM (inactive) | > 100 µM (inactive) | > 100 µM (inactive) | > 100 µM (inactive) | –
